Measurements taken from patent US20250041278A1, “TLR8 AGONIST FOR MODULATING IMMUNE RESPONSE” (The Children's Medical Center Corporation, priority 2021, published 2025).

Key:
[1] = test system: human adult and elderly PBMCs; assay: 14-multiplex cytokine assay in PBMC supernatants; assay type: cell-based
Description: (§1) FIGS. 1A-1D. Discovery of PVP-179 in a human PBMC high-throughput screen. FIG. 1A: A graphical overview depicting screen approach. From a high-throughput screen previously conducted, 310 molecules were identified to be activators of either THP-1 cells (monocyte cell line) or primary human adult peripheral blood mononuclear cells (PBMCs). These 310 molecules were assembled into a stimulation plate and then applied to the PBMCs of 4 elderly donors (cultured with 10% autologous plasma). […] Z scores were averaged across all four elderly donors. The Z score and chemical structure for PVP-179 are indicated. FIG. 1C: Human adult or elderly PBMCs (cultured with 10% autologous plasma) were stimulated with PVP-179 in a two-point concentration titration manner. After 18 hours of incubation, supernatant was processed for ELISA-based measurement of TNF production. N=4 donors. FIG. 1D: As in FIG. 1C, the supernatants were collected, and 14 cytokines were measured by multiplex assay. […] N=4 donors each.
The activity of PVP-179 was confirmed in a 96-well format in both human adult and elderly PBMCs.

[2] = test system: human elderly PBMCs; assay: Screen of 310 molecules for TNF production by human elderly PBMCs; assay type: cell-based; conditions: elderly PBMCs of 4 donors, 10% autologous plasma
Description: as §1
In a previous high throughput screen (HTS), a number of hit molecules were identified as potentially activating human leukocytes. […] A separate pilot screen of 9,000 of the molecules for TNF-inducing activity in adult human peripheral blood mononuclear cells (PBMCs) subsequently identified 133 molecules. […]

Compound: CCCCn1c(/N=C/c2nc3ccccc3n2C)nc2ccccc21 [PVP-179]
- innate immune response (cytokine responses), elder vs younger adult leukocytes ([1]; 14-multiplex assay): greater innate immune response in elder leukocytes than in younger adult controls
- proinflammatory cytokine and chemokine induction (TNF, IL-6, IL-8, IL-10, IL-12 p40, IL-12 p70, IP-10, CCL5, CCL3, MCP1, GM-CSF, IFN-γ, IFN-α2, IL1-β) ([1]; similarly to R848 at 25 μM): titration-dependent concentration of proinflammatory cytokines
- TNF production, screen hit call [2]: robust TNF-inducing hit
